Assay results published in patent US12617794B2, “GABAA positive allosteric modulator compounds, methods of making, and uses thereof” (NEUROCYCLE THERAPEUTICS, INC., priority 2019, dated 2026).
Where two headings read alike, the source gives them in different places.

Experiments:
Assay type in all cases: physicochemical
[1] = Slow cooling crystallization (Example 64); conditions: slow cooling to RT
Source text: The suspensions were filtered to obtain saturated solution, and it was kept in an oil bath to cool to RT. The solids obtained were characterized.
The suspensions were filtered to obtain a saturated solution, and it was kept in an oil bath which was allowed to cool to RT naturally. Any solids obtained were characterized. […] No new phosphate Form was obtained.

[2] = Fast cooling crystallization (Example 63); conditions: fast cooling to 4° C. or −20° C.
Protocol: The suspensions were filtered to obtain saturated solution which was cooled to final temperature (4° C. or −20° C.) immediately and characterized.
The suspensions were filtered to obtain saturated solutions which were immediately cooled to final temperature (4° C. or −20° C.). Any solids obtained were characterized.

[3] = Approximate solubility study of TPA023B phosphate (Example 25); conditions: RT, listed as TPA023B phosphate
Protocol: The total amount of solvent was recorded to calculate the approximate solubility in these solvents.

[4] = Solubility in aqueous buffers, SGF, FaSSIF and FeSSIF (Example 15); conditions: for solubility thermodynamic: 20 °C, thermodynamic from solid, read-out: Measured Conc.; for solubility thermodynamic / Measured Conc. (μg/mL): ~20-25° C., ~24 hours
Protocol: About 2 mg of test article was added to a 1.5 mL vials which contained ˜1.0 mL of one medium listed in Table 7 and Table 8, which was then sealed. The mixtures were stirred at ˜20-25° C. for ˜24 hours. After that, the mixture was filtered by 0.45 μm filter membrane and then the supernatant was analyzed by HPLC.

[5] = Slurry of Phosphate Form A in acetone with different water content (Example 68); conditions: for Result (solid form after slurry): slurry in acetone at RT
Source text: The suspension was stirred at RT for hours. The solid was isolated and analyzed. […] Phosphate dissociated when water content is >, 4% wt. in acetone at RT.

[6] = Liquid vapor diffusion (Example 61); conditions: RT, 6 days
Source text: After filtration, the filtrate in a small vial was put into a bigger vial containing anti-solvent. The bigger vial was left at RT for days. If precipitation occurred, solid was collected and characterized.
After filtration, the filtrate was transferred into a small vial, which was then placed inside a bigger vial which contained anti-solvent. The bigger vial was left at RT for 6 days. If precipitation occurred, solid was collected and characterized. No new phosphate form was obtained.

Competitive slurry study = test: Competitive slurry study
Source text: Determining which polymorphic form is more thermodynamically stable may be experimentally determined by conventional methods known in the art. For example, a competitive slurry experiment in which a 1:1 mixture of polymorphic forms is stirred for a period of time in a solvent in which both polymorphic forms are partly soluble may be conducted. It is accepted by those skilled in the art that if the 1:1 mixture converts entirely to one polymorphic form, that form that results is more thermodynamically stable of the two, while the other form is metastable.
TPA023B Phosphate of mixed forms was added into specific solvents and stirred at RT or 50° C. for 1 day. The suspensions were filtered and characterized by XRPD.

[7] = Slurry and stability study of phosphate (30.4, Example 35); conditions: IPAC, EA
Source text: The suspensions were filtered and characterized by XRPD.

[8] = One week accelerated stability testing (Example 3)
Protocol: The stability of Phosphate Polymorphic Form A and Free Base Polymorphic Form A were evaluated under accelerated conditions.

[9] = Mechanical treatment (grinding) of Phosphate Form A; conditions: for crystal form after grinding (XRPD): ground manually with mortar and pestle, 3-5 minutes
Source text: The crystal form was unchanged after grinding.

[10] = solvent 2-methyl tetrahydrofuran

Result (solid form obtained) ([1]; solvent 2-butanone): Phosphate Form A | Result (solid form obtained) [1, 10]: No solid | Result (solid form obtained) ([1]; solvent ACN): Phosphate Form A | Result (solid form obtained) ([1]; solvent Anisole): No solid | Result (solid form obtained) ([1]; solvent BAC): Phosphate Form A | Result (solid form obtained) ([1]; solvent Butanol): Free Base Form E | Result (solid form obtained) ([1]; solvent EA): No solid | Result (solid form obtained) ([1]; solvent Isoamyl alcohol): Free Base Form E | Result (solid form obtained) ([1]; solvent MAC): No solid | Result (solid form obtained) ([1]; solvent THF): No solid | Result (solid form obtained) ([2]; solvent 1,4-dioxane): No solid | Result (solid form obtained) ([2]; solvent 1-methyl-2-pyrrolidone): No solid | Result (solid form obtained) ([2]; solvent 2-butanone): Phosphate Form A | Result (solid form obtained) [2, 10]: No solid | Result (solid form obtained) ([2]; solvent 4-methyl-2-pentanone): Phosphate Form A | Result (solid form obtained) ([2]; solvent ACN): Phosphate Form A | Result (solid form obtained) ([2]; solvent Acetone): Phosphate Form A | Result (solid form obtained) ([2]; solvent Anisole): No solid | Result (solid form obtained) ([2]; solvent BAC): Phosphate Form A | Result (solid form obtained) ([2]; solvent Butanol): Freebase form A | Result (solid form obtained) ([2]; solvent DMF): No solid | Result (solid form obtained) ([2]; solvent DMSO): No solid | Result (solid form obtained) ([2]; solvent EA): Phosphate Form A | Result (solid form obtained) ([2]; solvent Ethyl formate): Phosphate Form A | Result (solid form obtained) ([2]; solvent Isoamyl alcohol): New Free Base pattern K | Result (solid form obtained) ([2]; solvent MAC): Phosphate Form A | Result (solid form obtained) ([2]; solvent MEK): Phosphate Form A | Result (solid form obtained) ([2]; solvent Propyl acetate): Phosphate Form A | Result (solid form obtained) ([2]; solvent THF): No solid | Solubility (mg/mL) ([3]; DMF): relatively high solubility | Solubility (mg/mL) ([3]; DMSO): relatively high solubility | solubility thermodynamic ([4]; FaSSIF, fassif, FaSSIF): 7.14 µg/mL | solubility thermodynamic ([4]; FeSSIF, fessif, FeSSIF): 50.7 µg/mL | solubility thermodynamic ([4]; SGF, simulated gastric fluid, SGF): 3.85 µg/mL | solubility thermodynamic ([4]; citrate buffer, pH 3, aqueous buffer, pH 3.0 citrate buffer (100 mM), LOQ: 0.1 μg/mL): 0.16 µg/mL | solubility compared with Free Base Polymorphic Form A ([4]; in SGF, FaSSIF and FeSSIF): higher solubility | Measured Conc. (μg/mL) ([4]; pH 4.5 citrate buffer (100 mM), LOQ: 0.1 μg/mL): <LOQ | Measured Conc. (μg/mL) ([4]; pH 7.4 PBS (50 mM), LOQ: 0.1 μg/mL): <LOQ | Measured Conc. (μg/mL) ([4]; pH 9.0 USP Buffer (50 mM), LOQ: 0.1 μg/mL): <LOQ | Result (solid form after slurry) ([5]; water content 3 wt. %): Phosphate Form A | Result (solid form after slurry) ([5]; water content 3.5 wt. %): Phosphate Form A | Result (solid form after slurry) ([5]; water content 4 wt. %): Phosphate Form A + Free Base Form E | Result (solid form after slurry) ([5]; water content 4.5 wt. %): Phosphate Form A + Free Base Form E | Result (solid form after slurry) ([5]; water content 5 wt. %): Phosphate Form A + Free Base Form E | Result (solid form after slurry) ([5]; water content 5.5 wt. %): Phosphate Form A + Free Base Form E | Result (solid form after slurry) ([5]; water content 6 wt. %): Phosphate Form A + Free Base Form E | solid form after slurry in acetone ([5]; water content <3.5% wt., RT): remained unchanged | solid form after slurry in acetone ([5]; water content >, 4% wt. in acetone at RT): dissociated | Result (solid form obtained) ([6]; solvent 2-methyl tetrahydrofuran, anti-solvent Chloroform): Phosphate Form A | Result (solid form obtained) ([6]; solvent 2-methyl tetrahydrofuran, anti-solvent Methyl cyclohexane): Phosphate Form A | Result (solid form obtained) ([6]; solvent 2-methyl tetrahydrofuran, anti-solvent xylene): Phosphate Form A | Result (solid form obtained) ([6]; solvent DMAC, anti-solvent DCM): No solid | Result (solid form obtained) ([6]; solvent DMAC, anti-solvent EA): No solid | Result (solid form obtained) ([6]; solvent DMAC, anti-solvent Isopropyl ether): No solid | Result (solid form obtained) ([6]; solvent Diox, anti-solvent ACN): No solid | Result (solid form obtained) ([6]; solvent Diox, anti-solvent BAC): Phosphate Form A | Result (solid form obtained) ([6]; solvent Diox, anti-solvent DCM): Phosphate Form A | Result (solid form obtained) ([6]; solvent Diox, anti-solvent Heptane): Phosphate Form A | Result (solid form obtained) ([6]; solvent Diox, anti-solvent Isopropyl ether): Phosphate Form A | Result (solid form obtained) ([6]; solvent MEK, anti-solvent Cyclohexanone): Phosphate Form A | Result (solid form obtained) ([6]; solvent MEK, anti-solvent DCM): Phosphate Form A | Result (solid form obtained) ([6]; solvent MEK, anti-solvent MAC): No solid | Result (solid form obtained) ([6]; solvent MEK, anti-solvent MTBE): No solid | Result (solid form obtained) ([6]; solvent MEK, anti-solvent Trichloromethane): Phosphate Form A | Result (solid form obtained) ([6]; solvent NMP, anti-solvent Chloroform): No solid | Result (solid form obtained) ([6]; solvent NMP, anti-solvent Isopropyl ether): No solid | Result (solid form obtained) ([6]; solvent NMP, anti-solvent MEK): No solid | Result (solid form obtained) ([6]; solvent THF, anti-solvent ACN): No solid | Result (solid form obtained) ([6]; solvent THF, anti-solvent EA): Phosphate Form A | Result (solid form obtained) ([6]; solvent THF, anti-solvent N-pentane): Phosphate Form A | Result (solid form obtained) ([6]; solvent THF, anti-solvent Toluene): Phosphate Form A | Result (solid form obtained) ([6]; solvent THF, anti-solvent Trichloromethane): No solid | thermodynamic stability among phosphate forms (Competitive slurry study): most thermodynamically stable form | crystal form after slurry (XRPD) ([7]; 100 mg slurried in 2 mL THF, 2-Me THF, acetone and ACN at RT): remains unchanged | stability in solvents ([7]; THF, 2-Me-THF, Acetone, MTBE or ACN): stable | Assay (%) ([8]; 40° C./75% RH (open), 1 week): 97.12% | Purity (%) ([8]; 40° C./75% RH (open), 1 week): 99.02% | Assay (%) ([8]; 80° C. (open), 1 week): 95.99% | Purity (%) ([8]; 80° C. (open), 1 week): 98.94% | Purity (%) ([8]; Initial): 98.91% | Assay (%) ([8]; Initial, assay criterion 95%-105%): 104.60% | Assay (%) ([8]; Light, ~50 h): 95.25% | Purity (%) ([8]; Light, ~50 h): 97.55% | crystallinity after grinding [9]: decreased | crystal form after grinding (XRPD) ([9]; listed as Phosphate Form A): unchanged | crystal form after grinding (XRPD) ([9]; listed as TPA023B Phosphate Form A): remained unchanged | crystal form after grinding (XRPD) ([9]; listed as phosphate Form A): no change
Compound: CC(C)(O)c1cnn2c(-c3ccc(F)c(-c4c(F)cccc4C#N)c3)cnc2n1 [Phosphate Polymorphic Form A, 2′,6-difluoro-5′-[3-(1-hydroxy-1-methylethyl)-imidazo[1,2-b][1,2,4]triazin-7-yl]biphenyl-2-carbonitrile]
